Results: patent publication US6914045B2, “Glycopeptide antibiotics” (Wyeth Holdings Corporation, priority 2001, dated 2005)
Values after ≈ are worked out from the molar mass of the structure shown.

What was measured:
[1] = test system: Staphylococcus aureus-SMITH (GC 4543); assay: acute lethal infection in mice; assay type: in vivo; settings: acute lethal infection, female CD-1 mice, intraperitoneal challenge, intravenous 30 min. after infection, 7 day survival
Method in brief: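 Female CD-1 mice (20+/−2 gm) were infected intraperitoneally with enough bacteria, suspended in trypticase soy broth or hog gastric mucin, to kill untreated controls within 24-48 hr. Compound in saline or 5% dextrose was given intravenously 30 min post-infection, five mice per dose. ED50 came from pooled 7 day survival of 3 tests.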

Streptococcus sp. = assay: in vitro antibacterial evaluation, MIC by broth dilution; assay type: cell-based; settings: broth dilution, 18 hours at 35° C.
Method in brief: (§1)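 MIC = lowest antibiotic concentration preventing visible growth; inoculum 5×10^5 CFU/mL; drug range 64-0.06 μg/mL; Muller-Hinton II […]; NCCLS M7-A2 guidance.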

Enterococcus sp. = assay: as above; assay type: cell-based; settings: broth dilution, 18 hours at 35° C.
Method in brief: as §1

Escherichia coli = assay: as above; assay type: cell-based; settings: 18 hours at 35° C.
Method in brief: as §1

Staphylococcus sp. = assay: as above; assay type: cell-based; settings: broth dilution, 18 hours at 35° C.
Method in brief: as §1

COc1ccc(CC2OCC3OC(OC4C(CO)OC(Oc5ccc(CC6NC(=O)C(C(C)c7ccccc7)NC(=O)CNC(=O)C(CO)NC(=O)C(C(O)C7CNC(=N)N7C7OC(CO)C(O)C(O)C7O)NC(=O)C(C(O)C7CNC(=N)N7)NC6=O)cc5)C(O)C4O)C(O)C(O)C3O2)cc1 (stereo not drawn) [Example 103, Cyco[glycyl-β-methylphenylalanyl-O-[4-O-[4,6-O-(4-methoxyphenethylidene)hexopyranosyl]-hexopyranosyl]tyrosyl-3-(2-iminoimidazolidin-4-yl)seryl-3-(3-hexopyranosyl-2-iminoimidazolidin-4-yl)serylseryl]]
median effective dose (ED50), Staphylococcus aureus-SMITH (GC 4543) [1]: 0.28 mg/kg
MIC Streptococcus agalactiae (GC 4564) (Streptococcus sp.; Streptococcus agalactiae (GC 4564)): 0.5 µg/mL (≈ 0.35 µM)
MIC Streptococcus pneumoniae (ATCC 6301) (Streptococcus sp.; Streptococcus pneumoniae (ATCC 6301)): 0.12 µg/mL (≈ 0.0841 µM)
MIC Streptococcus pneumoniae (GC 1894) (Streptococcus sp.; Streptococcus pneumoniae (GC 1894)): 0.12 µg/mL (≈ 0.0841 µM)
MIC Streptococcus pneumoniae (GC 4565) (Streptococcus sp.; Streptococcus pneumoniae (GC 4565)): 0.12 µg/mL (≈ 0.0841 µM)
MIC Streptococcus pyogenes (GC 4563) (Streptococcus sp.; Streptococcus pyogenes (GC 4563)): 0.25 µg/mL (≈ 0.175 µM)
MIC Streptococcus pneumoniae (ATCC 6301) (Streptococcus sp.; strain ATCC 6301): 0.12 µg/mL (≈ 0.0841 µM)
MIC Streptococcus pneumoniae (GC 1894) (Streptococcus sp.; strain GC 1894): 0.12 µg/mL (≈ 0.0841 µM)
MIC Streptococcus pyogenes (GC 4563) (Streptococcus sp.; strain GC 4563): 0.25 µg/mL (≈ 0.175 µM)
MIC Streptococcus agalactiae (GC 4564) (Streptococcus sp.; strain GC 4564): 0.5 µg/mL (≈ 0.35 µM)
MIC Streptococcus pneumoniae (GC 4565) (Streptococcus sp.; strain GC 4565): 0.12 µg/mL (≈ 0.0841 µM)
MIC Enterococcus avium (GC 4558) (Enterococcus sp.; Enterococcus avium (GC 4558)): 8 µg/mL (≈ 5.6 µM)
MIC Enterococcus faecalis (ATCC 29212) (Enterococcus sp.; Enterococcus faecalis (ATCC 29212)): 4 µg/mL (≈ 2.8 µM)
MIC Enterococcus faecalis (GC 2242) (Enterococcus sp.; Enterococcus faecalis (GC 2242)): 4 µg/mL (≈ 2.8 µM)
MIC Enterococcus faecalis (GC 2691) (Enterococcus sp.; Enterococcus faecalis (GC 2691)): 8 µg/mL (≈ 5.6 µM)
MIC Enterococcus faecalis (GC 3059) (Enterococcus sp.; Enterococcus faecalis (GC 3059)): 8 µg/mL (≈ 5.6 µM)
MIC Enterococcus faecalis (GC 4552) (Enterococcus sp.; Enterococcus faecalis (GC 4552)): 8 µg/mL (≈ 5.6 µM)
MIC Enterococcus faecalis (GC 4553) (Enterococcus sp.; Enterococcus faecalis (GC 4553)): 8 µg/mL (≈ 5.6 µM)
MIC Enterococcus faecalis (GC 4554) (Enterococcus sp.; Enterococcus faecalis (GC 4554)): 8 µg/mL (≈ 5.6 µM)
MIC Enterococcus faecalis (GC 6189) (Enterococcus sp.; Enterococcus faecalis (GC 6189)): 4 µg/mL (≈ 2.8 µM)
MIC Enterococcus faecium (GC 2243) (Enterococcus sp.; Enterococcus faecium (GC 2243)): 4 µg/mL (≈ 2.8 µM)
MIC Enterococcus faecium (GC 4556) (Enterococcus sp.; Enterococcus faecium (GC 4556)): 4 µg/mL (≈ 2.8 µM)
MIC Enterococcus faecium (GC 4557) (Enterococcus sp.; Enterococcus faecium (GC 4557)): 2 µg/mL (≈ 1.4 µM)
MIC Enterococcus faecalis (ATCC 29212) (Enterococcus sp.; strain ATCC 29212): 4 µg/mL (≈ 2.8 µM)
MIC Enterococcus faecalis (GC 2242) (Enterococcus sp.; strain GC 2242): 4 µg/mL (≈ 2.8 µM)
MIC Enterococcus faecium (GC 2243) (Enterococcus sp.; strain GC 2243): 4 µg/mL (≈ 2.8 µM)
MIC Enterococcus faecalis (GC 2691) (Enterococcus sp.; strain GC 2691): 8 µg/mL (≈ 5.6 µM)
MIC Enterococcus faecalis (GC 3059) (Enterococcus sp.; strain GC 3059): 8 µg/mL (≈ 5.6 µM)
MIC Enterococcus faecalis (GC 4552) (Enterococcus sp.; strain GC 4552): 8 µg/mL (≈ 5.6 µM)
MIC Enterococcus faecalis (GC 4553) (Enterococcus sp.; strain GC 4553): 8 µg/mL (≈ 5.6 µM)
MIC Enterococcus faecalis (GC 4554) (Enterococcus sp.; strain GC 4554): 8 µg/mL (≈ 5.6 µM)
MIC Enterococcus faecium (GC 4556) (Enterococcus sp.; strain GC 4556): 4 µg/mL (≈ 2.8 µM)
MIC Enterococcus faecium (GC 4557) (Enterococcus sp.; strain GC 4557): 2 µg/mL (≈ 1.4 µM)
MIC Enterococcus avium (GC 4558) (Enterococcus sp.; strain GC 4558): 8 µg/mL (≈ 5.6 µM)
MIC Enterococcus faecalis (GC 6189) (Enterococcus sp.; strain GC 6189): 4 µg/mL (≈ 2.8 µM)
MIC Escherichia coli (ATCC 25922) (Escherichia coli; strain ATCC 25922): 64 µg/mL (≈ 44.8 µM)
MIC Escherichia coli (GC 4559) (Escherichia coli; strain GC 4559): 64 µg/mL (≈ 44.8 µM)
MIC Escherichia coli (GC 4560) (Escherichia coli; strain GC 4560): 1 µg/mL (≈ 0.701 µM)
MIC Coagulase Negative Staphylococcus (GC 4547) (Staphylococcus sp.): 2 µg/mL (≈ 1.4 µM)
MIC Coagulase Negative Staphylococcus (GC 4548) (Staphylococcus sp.): 1 µg/mL (≈ 0.701 µM)
MIC Coagulase Negative Staphylococcus (GC 4549) (Staphylococcus sp.): 1 µg/mL (≈ 0.701 µM)
MIC Coagulase Negative Staphylococcus (GC 4551) (Staphylococcus sp.): 2 µg/mL (≈ 1.4 µM)
MIC Coagulase Negative Staphylococcus (GC 6257) (Staphylococcus sp.): 1 µg/mL (≈ 0.701 µM)
MIC Staphylococcus aureus (ATCC 29213) (Staphylococcus sp.): 2 µg/mL (≈ 1.4 µM)
MIC Staphylococcus aureus (GC 1131) (Staphylococcus sp.): 2 µg/mL (≈ 1.4 µM)
MIC Staphylococcus aureus (GC 3051) (Staphylococcus sp.): 1 µg/mL (≈ 0.701 µM)
MIC Staphylococcus aureus (GC 3053) (Staphylococcus sp.): 2 µg/mL (≈ 1.4 µM)
MIC Staphylococcus aureus (GC 4541) (Staphylococcus sp.): 2 µg/mL (≈ 1.4 µM)
MIC Staphylococcus aureus (GC 4542) (Staphylococcus sp.): 2 µg/mL (≈ 1.4 µM)
MIC Staphylococcus aureus (GC 4544) (Staphylococcus sp.): 2 µg/mL (≈ 1.4 µM)
MIC Staphylococcus aureus (GC 4545) (Staphylococcus sp.): 1 µg/mL (≈ 0.701 µM)
MIC Staphylococcus aureus-SMITH (GC 4543) (Staphylococcus sp.): 1 µg/mL (≈ 0.701 µM)
MIC Staphylococcus haemolyticus (GC 4546) (Staphylococcus sp.): 1 µg/mL (≈ 0.701 µM)
MIC Staphylococcus haemolyticus (GC 4546) (Staphylococcus sp.; strain GC 4546): 1 µg/mL (≈ 0.701 µM)
MIC Coagulase Negative Staphylococcus (GC 4547) (Staphylococcus sp.; strain GC 4547): 2 µg/mL (≈ 1.4 µM)
MIC Coagulase Negative Staphylococcus (GC 4548) (Staphylococcus sp.; strain GC 4548): 1 µg/mL (≈ 0.701 µM)
MIC Coagulase Negative Staphylococcus (GC 4549) (Staphylococcus sp.; strain GC 4549): 1 µg/mL (≈ 0.701 µM)
MIC Coagulase Negative Staphylococcus (GC 4551) (Staphylococcus sp.; strain GC 4551): 2 µg/mL (≈ 1.4 µM)
MIC Coagulase Negative Staphylococcus (GC 6257) (Staphylococcus sp.; strain GC 6257): 1 µg/mL (≈ 0.701 µM)
MIC Staphylococcus aureus-SMITH (GC 4543) (Staphylococcus sp.; strain SMITH GC 4543): 1 µg/mL (≈ 0.701 µM)
MIC Staphylococcus aureus (ATCC 29213) (Staphylococcus sp.; strain ATCC 29213): 2 µg/mL (≈ 1.4 µM)
MIC Staphylococcus aureus (GC 1131) (Staphylococcus sp.; strain GC 1131): 2 µg/mL (≈ 1.4 µM)
MIC Staphylococcus aureus (GC 3051) (Staphylococcus sp.; strain GC 3051): 1 µg/mL (≈ 0.701 µM)
MIC Staphylococcus aureus (GC 3053) (Staphylococcus sp.; strain GC 3053): 2 µg/mL (≈ 1.4 µM)
MIC Staphylococcus aureus (GC 4541) (Staphylococcus sp.; strain GC 4541): 2 µg/mL (≈ 1.4 µM)
MIC Staphylococcus aureus (GC 4542) (Staphylococcus sp.; strain GC 4542): 2 µg/mL (≈ 1.4 µM)
MIC Staphylococcus aureus (GC 4544) (Staphylococcus sp.; strain GC 4544): 2 µg/mL (≈ 1.4 µM)
MIC Staphylococcus aureus (GC 4545) (Staphylococcus sp.; strain GC 4545): 1 µg/mL (≈ 0.701 µM)
